SMILES strings stand for the structures. Values joined by “and” are separate entries in the source; they are usually repeats but may differ in a detail not shown here. Identical values can stand only once.

The experiment has as its system organisms on freshly killed whole birds (3M Aerobic Count Petrifilm). Put plainly: Whole bird carcass dip test, aerobic count. The following applies: for Average Organisms/Bird / Organisms/Bird / % Reduction: 10 seconds dip, pre 5 bird dip pH 1.80, post pH 1.96; for Organisms/Bird: individual birds; for % Reduction: vs no-treatment control. Here is the method:
In order to test the efficacy of the composition of the present invention for use in treating animal carcasses, freshly killed whole birds were dipped and completely immersed in 13 liters of treatment solution for 10 seconds. […] The growth medium was 3M Aerobic Count Petrifilm. The incubation was 2-3 days at 35° C. […] The same test was repeated using commercially available products, […]12, and Eden, comparing these with sodium acid sulfate and sodium acid sulfate in combination with citric acid.

For `CC(O)C(=O)O` (stereo not shown) [Lactic Acid, lactic acid, reference compound], where the note is “2400 ppm Lactic Acid”, the “Average Organisms/Bird” value was 2,054,800 Organisms/Bird; the Organisms/Bird was 600,000 Organisms/Bird and 1,074,000 Organisms/Bird and 2,120,000 Organisms/Bird and 3,240,000 Organisms/Bird (2×); the “% Reduction” value is 10.8%. Besides, under “4800 ppm Lactic Acid”, the “Average Organisms/Bird” value was 1,430,000 Organisms/Bird; the Organisms/Bird was 1,000,000 Organisms/Bird and 1,800,000 Organisms/Bird and 1,400,000 Organisms/Bird and 1,520,000 Organisms/Bird; the “% Reduction” value is 37.9%. Besides, the “antimicrobial effect in carcass dip (in words)” value (lactic acid itself (2400 and 4800 ppm)) was “relatively little antimicrobial effect”.
